The record followed here is patent US20060276464A1, “Diarylsulfone sulfonamides and use thereof” (Wyeth, priority 2005, published 2006).

This series addresses T1, SFRP-1 (Homo sapiens, UniProt Q8N474).
T1 sequence (Q8N474 32-314): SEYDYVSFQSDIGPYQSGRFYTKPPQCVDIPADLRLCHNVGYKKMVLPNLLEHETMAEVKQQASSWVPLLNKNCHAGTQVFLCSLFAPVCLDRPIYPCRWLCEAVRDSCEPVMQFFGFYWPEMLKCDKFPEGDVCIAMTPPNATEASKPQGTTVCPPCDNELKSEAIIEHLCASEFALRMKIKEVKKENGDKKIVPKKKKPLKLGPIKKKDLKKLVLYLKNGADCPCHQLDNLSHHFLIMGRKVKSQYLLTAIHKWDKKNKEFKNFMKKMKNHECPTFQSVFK
As to the kind of experiment: Cell-based assay for in vitro measurement of SFRP-1/SARP2 antagonist activity (U2OS cells co-transfected with 16x TCF-tk-Luciferase reporter, Wnt and hSFRP-1).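 For all read-outs here: U2OS cells co-transfected with a TCF-tk luciferase reporter, a Wnt vector, hSFRP-1 or empty vector and CMV-βgal, luciferase luminescence read in cell lysates alongside βgal activity.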 The conditions noted are these: for fold induction at 15 µM / fold induction at 30 µM: U2OS.

[1] abbreviates: read-out: Fold Induction with SFRP-1, Conc 15 μM, with SFRP-1, fold induction over SFRP-1 control, single dose.
Setting [2] is: read-out: Fold Induction without SFRP-1, Conc 15 μM, without SFRP-1, single dose.
Setting [3] is: read-out: Fold Induction with SFRP-1, Conc 30 μM, with SFRP-1, fold induction over SFRP-1 control, single dose.
[4] abbreviates: read-out: Fold Induction without SFRP-1, Conc 30 μM, without SFRP-1, single dose.
Where [5] appears, read: Conc 30 μM, with SFRP-1, fold induction over SFRP-1 control, single dose.

Read-outs that look alike come from different tables or passages of the source.

As for `Cc1ccc(S(=O)(=O)c2ccccc2)cc1S(=O)(=O)N[C@H]1CCCC[C@@H]1O` (relative stereo) [Example 412, N-[(1S*,2S*)-2-hydroxycyclohexyl]-2-methyl-5-(phenylsulfonyl)benzenesulfonamide], the fold induction at 15 µM by setting is: under setting [1], 1.9; under setting [2], 1.5.

Consider `Cc1ccc(S(=O)(=O)c2ccccc2)cc1S(=O)(=O)NCCc1ccccc1` [Example 1, 2-Methyl-N-(2-phenylethyl)-5-(phenylsulfonyl)benzene sulfonamide], for which the fold induction at 30 µM is, setting by setting: under setting [3], 1.5; under setting [4], 0.6.

Turning to `Cc1ccc(S(=O)(=O)c2ccc(F)cc2)cc1S(=O)(=O)NCCc1ccccc1` [Example 2, 5-[(4-fluorophenyl)sulfonyl]-2-methyl-N-(2-phenylethyl)benzenesulfonamide], the fold induction at 30 µM was found to be 0.9 under setting [3] and 0.5 under setting [4].

Take `Cc1ccc(S(=O)(=O)c2ccc(F)cc2)cc1S(=O)(=O)NCCc1ccccc1Cl` [Example 3, N-[2-(2-chlorophenyl)ethyl]-5-[(4-fluorophenyl)sulfonyl]-2-methylbenzenesulfonamide]: the fold induction at 30 µM reads like this: under setting [3], 1.1; under setting [4], 0.4.

For `COc1ccccc1CCNS(=O)(=O)c1cc(S(=O)(=O)c2ccc(F)cc2)ccc1C` [Example 4, 5-[(4-fluorophenyl)sulfonyl]-N-[2-(2-methoxyphenyl)ethyl]-2-methylbenzenesulfonamide], the fold induction at 30 µM reads like this: under setting [3], 0.1; under setting [4], 0.1.

Regarding `Cc1ccc(S(=O)(=O)c2ccc(F)cc2)cc1S(=O)(=O)NCCc1cccc(F)c1` [Example 24, N-[2-(3-fluorophenyl)ethyl]-5-[(4-fluorophenyl)sulfonyl]-2-methylbenzenesulfonamide], the fold induction at 30 µM by setting is: under setting [3], 0.3; under setting [4], 0.3.

For the compound `COc1ccc(Br)cc1CCNS(=O)(=O)c1cc(S(=O)(=O)c2ccc(F)cc2)ccc1C` [Example 30, N-[2-(5-bromo-2-methoxyphenyl)ethyl]-5-[(4-fluorophenyl)sulfonyl]-2-methylbenzenesulfonamide], the “Fold Induction with SFRP-1” value under setting [5] amounted to 1 fold. In addition, the fold induction at 15 µM under setting [1] was determined as 2.4 and the fold induction at 15 µM under setting [2] came to 0.9. Further, the fold induction at 30 µM under setting [3] came to 1.7.

In the case of `Cc1ccc(S(=O)(=O)c2ccccc2)cc1S(=O)(=O)NCCc1ccccc1Cl` [Example 31, N-[2-(2-chlorophenyl)ethyl]-2-methyl-5-(phenylsulfonyl)benzenesulfonamide], the fold induction at 30 µM was found to be 0.4 under setting [3] and 0.5 under setting [4].

In the case of `COc1ccccc1CCNS(=O)(=O)c1cc(S(=O)(=O)c2ccccc2)ccc1C` [Example 32, N-[2-(2-methoxyphenyl)ethyl]-2-methyl-5-(phenylsulfonyl)benzenesulfonamide], the fold induction at 30 µM is, setting by setting: under setting [3], 0.5; under setting [4], 0.5.

`COc1cccc(CCNS(=O)(=O)c2cc(S(=O)(=O)c3ccccc3)ccc2C)c1` [Example 33, N-[2-(3-methoxyphenyl)ethyl]-2-methyl-5-(phenylsulfonyl)benzenesulfonamide]: the fold induction at 30 µM by setting is: under setting [3], 1.2; under setting [4], 0.4.

Turning to `COc1ccc(CCNS(=O)(=O)c2cc(S(=O)(=O)c3ccccc3)ccc2C)cc1OC` [Example 34, N-[2-(3,4-dimethoxyphenyl)ethyl]-2-methyl-5-(phenylsulfonyl)benzenesulfonamide], the fold induction at 30 µM by setting is: under setting [3], 1.7; under setting [4], 0.6.

In the case of `Cc1ccc(S(=O)(=O)c2ccccc2)cc1S(=O)(=O)NCCc1ccc(S(N)(=O)=O)cc1` [Example 40, N-{2-[4-(aminosulfonyl)phenyl]ethyl}-2-methyl-5-(phenylsulfonyl)benzenesulfonamide], the fold induction at 30 µM under setting [3] was determined as 1.7 and the fold induction at 30 µM under setting [4] came out at 0.9.

For `Cc1ccc(S(=O)(=O)c2ccccc2)cc1S(=O)(=O)NCCc1ccc2c(c1)OCO2` [Example 43, N-[2-(1,3-benzodioxol-5-yl)ethyl]-2-methyl-5-(phenylsulfonyl)benzenesulfonamide], the fold induction at 30 µM came out at 3.6 under setting [3] and 1 under setting [4].

For the compound `CCOc1ccc(CCNS(=O)(=O)c2cc(S(=O)(=O)c3ccccc3)ccc2C)cc1` [Example 51, N-[2-(4-ethoxyphenyl)ethyl]-2-methyl-5-(phenylsulfonyl)benzenesulfonamide], the fold induction at 30 µM is, setting by setting: under setting [3], 2.6; under setting [4], 0.9.

As for `Cc1ccc(S(=O)(=O)c2ccccc2)cc1S(=O)(=O)NCCc1cccc(F)c1` [Example 52, N-[2-(3-fluorophenyl)ethyl]-2-methyl-5-(phenylsulfonyl)benzenesulfonamide], the fold induction at 30 µM is, setting by setting: under setting [3], 1.4; under setting [4], 0.7.

Consider `Cc1ccc(S(=O)(=O)c2ccccc2)cc1S(=O)(=O)NCCc1ccccc1F` [Example 53, N-[2-(2-fluorophenyl)ethyl]-2-methyl-5-(phenylsulfonyl)benzenesulfonamide], for which the “Fold Induction with SFRP-1” value under setting [5] turned out to be 1.2 fold. For the same compound, the “Fold Induction without SFRP-1” value (Conc 30 μM, without SFRP-1, single dose) turned out to be 0.6 fold. Further, the fold induction at 30 µM is, setting by setting: under setting [3], 1; under setting [4], 0.4.

On to `CCOc1cc(CCNS(=O)(=O)c2cc(S(=O)(=O)c3ccccc3)ccc2C)ccc1OC` [Example 54, N-[2-(3-ethoxy-4-methoxyphenyl)ethyl]-2-methyl-5-(phenylsulfonyl)benzenesulfonamide], for which the “Fold Induction with SFRP-1” value under setting [5] is 3.6 fold. Also, the fold induction at 30 µM worked out at 3.8 under setting [3] and 1.1 under setting [4].

`CCOc1ccc(CCNS(=O)(=O)c2cc(S(=O)(=O)c3ccccc3)ccc2C)cc1OC` [Example 55, N-[2-(4-ethoxy-3-methoxyphenyl)ethyl]-2-methyl-5-(phenylsulfonyl)benzenesulfonamide]: the fold induction at 30 µM by setting is: under setting [3], 3.1; under setting [4], 0.9.

For `COc1cccc(CCNS(=O)(=O)c2cccc(S(=O)(=O)c3ccccc3)c2)c1` [Example 62, N-[2-(3-methoxyphenyl)ethyl]-3-(phenylsulfonyl)benzenesulfonamide], the fold induction at 15 µM under setting [1] was determined as 1.2 and the fold induction at 15 µM under setting [2] is 1.1.

As to `CCOc1ccc(CCNS(=O)(=O)c2cccc(S(=O)(=O)c3ccccc3)c2)cc1` [Example 80, N-[2-(4-ethoxyphenyl)ethyl]-3-(phenylsulfonyl)benzenesulfonamide], the fold induction at 15 µM turned out to be 1 under setting [1] and 0.7 under setting [2].

`O=S(=O)(NCCc1cccc(F)c1)c1cccc(S(=O)(=O)c2ccccc2)c1` [Example 81, N-[2-(3-fluorophenyl)ethyl]-3-(phenylsulfonyl)benzenesulfonamide]: the fold induction at 15 µM was found to be 1 under setting [1] and 0.9 under setting [2].

Turning to `O=S(=O)(NCCc1ccccc1F)c1cccc(S(=O)(=O)c2ccccc2)c1` [Example 82, N-[2-(2-fluorophenyl)ethyl]-3-(phenylsulfonyl)benzenesulfonamide], the fold induction at 15 µM is, setting by setting: under setting [1], 1.2; under setting [2], 1.

In the case of `CCOc1cc(CCNS(=O)(=O)c2cccc(S(=O)(=O)c3ccccc3)c2)ccc1OC` [Example 83, N-[2-(3-ethoxy-4-methoxyphenyl)ethyl]-3-(phenylsulfonyl)benzenesulfonamide], the fold induction at 15 µM runs as follows: under setting [1], 1.3; under setting [2], 1.2.
